Measurements: ChEMBL document CHEMBL2074021, “Nuclear receptor response elements mediate induction of intestinal MDR1 by rifampin” (J Biol Chem, 2001)

Molecular target: ATP-dependent translocase ABCB1 (Homo sapiens, UniProt P08183)
Experiment: TP_TRANSPORTER: Northern blot from LS174T cell
Assay type: functional, cell-based

Sequence of ATP-dependent translocase ABCB1 (P08183 whole entry): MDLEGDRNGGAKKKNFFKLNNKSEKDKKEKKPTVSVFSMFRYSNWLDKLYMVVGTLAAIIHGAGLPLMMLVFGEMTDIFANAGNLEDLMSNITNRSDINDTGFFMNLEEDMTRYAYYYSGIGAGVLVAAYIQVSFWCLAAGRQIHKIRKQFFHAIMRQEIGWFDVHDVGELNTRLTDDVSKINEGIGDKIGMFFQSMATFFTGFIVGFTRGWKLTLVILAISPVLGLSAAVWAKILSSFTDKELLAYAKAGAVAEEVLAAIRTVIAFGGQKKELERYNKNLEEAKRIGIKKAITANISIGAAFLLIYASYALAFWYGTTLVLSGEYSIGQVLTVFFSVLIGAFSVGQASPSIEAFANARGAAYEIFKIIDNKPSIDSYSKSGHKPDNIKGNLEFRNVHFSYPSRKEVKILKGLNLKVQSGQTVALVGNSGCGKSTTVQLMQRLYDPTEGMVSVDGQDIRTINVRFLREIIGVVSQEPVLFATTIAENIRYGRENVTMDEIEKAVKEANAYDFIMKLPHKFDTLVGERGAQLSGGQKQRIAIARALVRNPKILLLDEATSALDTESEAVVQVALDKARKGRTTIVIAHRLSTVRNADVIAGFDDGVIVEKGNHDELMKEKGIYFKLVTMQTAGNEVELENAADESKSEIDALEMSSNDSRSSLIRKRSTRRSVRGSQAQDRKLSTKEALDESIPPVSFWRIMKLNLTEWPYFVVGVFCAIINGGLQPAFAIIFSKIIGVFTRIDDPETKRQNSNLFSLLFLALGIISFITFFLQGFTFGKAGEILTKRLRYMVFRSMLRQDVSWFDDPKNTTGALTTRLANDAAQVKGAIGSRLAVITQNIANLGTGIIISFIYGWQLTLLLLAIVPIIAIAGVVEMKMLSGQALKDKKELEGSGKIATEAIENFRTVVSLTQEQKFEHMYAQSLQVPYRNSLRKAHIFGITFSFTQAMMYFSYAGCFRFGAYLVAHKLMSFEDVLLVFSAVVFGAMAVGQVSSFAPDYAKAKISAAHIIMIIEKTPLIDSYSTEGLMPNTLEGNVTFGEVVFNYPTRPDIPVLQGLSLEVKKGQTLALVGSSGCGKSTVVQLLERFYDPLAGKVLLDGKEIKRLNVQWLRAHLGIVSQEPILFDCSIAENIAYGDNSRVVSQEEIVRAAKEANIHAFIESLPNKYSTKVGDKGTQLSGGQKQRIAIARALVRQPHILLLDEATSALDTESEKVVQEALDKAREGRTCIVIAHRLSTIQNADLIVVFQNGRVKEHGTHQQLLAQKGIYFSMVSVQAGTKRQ

## CC(=O)[C@H]1CC[C@H]2[C@@H]3CC[C@@H]4CC(=O)CC[C@]4(C)[C@H]3CC[C@]12C
  Activity: inducer [+]

## NC(=O)N1c2ccccc2C=Cc2ccccc21 [CARBAMAZEPINE]
  Activity: inducer [+]

## Clc1ccccc1C(c1ccccc1)(c1ccccc1)n1ccnc1 [CLOTRIMAZOLE]
  Activity: inducer [+]

## C[C@]12C[C@H](O)[C@H]3[C@@H](CCC4=CC(=O)CC[C@@]43C)[C@@H]1CC[C@@H]2C(=O)CO [CORTICOSTERONE]
  Activity: inducer [+]

## C[C@@H]1C[C@H]2[C@@H]3CCC4=CC(=O)C=C[C@]4(C)[C@@]3(F)[C@@H](O)C[C@]2(C)[C@@]1(O)C(=O)CO [DEXAMETHASONE]
  Activity: inducer [+]

## CC#C[C@]1(O)CC[C@H]2[C@@H]3CCC4=CC(=O)CCC4=C3[C@@H](c3ccc(N(C)C)cc3)C[C@@]21C [MIFEPRISTONE]
  Activity: inducer [+]

## COC(=O)C1=C(C)NC(C)=C(C(=O)OC)C1c1ccccc1[N+](=O)[O-] [NIFEDIPINE]
  Activity: inducer [+]

## CC(=O)[C@H]1[C@H](C#N)C[C@H]2[C@@H]3CC=C4C[C@@H](O)CC[C@]4(C)[C@H]3CC[C@@]21C [PREGNENOLONE CARBONITRILE]
  Activity: inducer [+]

## COC(=O)[C@H]1[C@H]2C[C@@H]3c4[nH]c5cc(OC)ccc5c4CCN3C[C@H]2C[C@@H](OC(=O)c2cc(OC)c(OC)c(OC)c2)[C@@H]1OC [RESERPINE]
  Activity: inducer [+]

## CO[C@H]1/C=C/O[C@@]2(C)Oc3c(C)c(O)c4c(O)c(c(/C=N/N5CCN(C)CC5)c(O)c4c3C2=O)NC(=O)/C(C)=C\C=C\[C@H](C)[C@H](O)[C@@H](C)[C@@H](O)[C@@H](C)[C@H](OC(C)=O)[C@@H]1C [RIFAMPIN]
  Activity: inducer [+]
